In US11576913B2 (priority 2018, dated 2023):

System: subjects suffering from the Insomnia Disorder adult insomnia
Experiment: Polysomnography crossover study of sleep parameters (SE, TST, WASO, LPS, Stage N2)
Assay type: in vivo, human
Settings: for Latency to Persistent Sleep (LPS) Least Squares Means (STDE) / Sleep Efficiency (SE) Least Squares Means (STDE) / Time Spent in Sleep Stage N2 Least Squares Means (STDE) / Total Sleep Time (TST) Least Squares Means (STDE) / Wake after Sleep Onset (WASO) Least Squares Means (STDE): average of Night 1 and Night 2, full analysis population; for WASO, decrease in the difference of LSMs: stated as decrease
Method: The study randomized up to about 30 subjects to achieve at least about 24 completers (i.e., subjects who completed all 5 Dosing Periods). The subjects included otherwise healthy males and females aged 18 to 64 years, inclusive, with a history of adult insomnia (insomnia disorder as defined by DSM-5 criteria) and who otherwise had no significant medical or psychiatric history.
Compound (1C) was administered orally in an immediate release tablet comprising the pharmaceutically acceptable excipients croscarmellose sodium (FMC Health and Nutrition, Philadelphia, Pa.), hydroxypropylcellulose (Ashland Inc., Covington, Ky.), microcrystalline cellulose (Sigma-Aldrich, St. Louis, Mo.), and mannitol (SPI Pharma, Wilmington, Del.). […] Placebo tablets matching the Compound (1C) tablets were orally administered in the same way. The placebo tablets comprised the four above-described pharmaceutically acceptable excipients but with no Compound (1C).
During a baseline visit (Days −7 to −6), successful subjects arrived at a clinical unit in the afternoon or evening of Day −7. At that time, they began a stay of two consecutive nights during which each subject underwent continuous PSG recording for eight hours on the first night (Night 1) to assess eligibility criteria and to screen out subjects with sleep apnea or periodic limb movements with arousal. Still-successful subjects underwent another eight hours of continuous PSG recording on the second night (Night 2), which determined if a subject met the sleep-eligibility criteria based on the average of data obtained on Nights 1 and 2 of the baseline visit. During the baseline visit, subjects also practiced and took a post-sleep test used in this study, i.e., the digit symbol substitution test (“DSST”), and familiarized themselves with the Karolinska Sleepiness Scale (“KSS”) evaluation form. To assess a subject's perception of the “quality” and “quantity” of sleep, a post-sleep questionnaire was used to ask questions such as “how many minutes did it take you to fall asleep last night after you got into bed and the lights were turned off?”, “how many times did you awaken during the night?”, and “on a scale from 1 to 10, with 1 being poor and 10 being excellent, how would you rate the quality of your sleep last night?”. Subjects who met all eligibility criteria after the baseline visit returned approximately seven days later to enter the treatment period (Dosing Periods 1-5).
A summary of the PSG recording procedure that was used is as follows. Standard placements for EEG electrodes were derived according to the international 10-20 system (see, e.g., Jasper, “The ten-twenty electrode system of the international federation,” Electroencephalography Clin. Neurophys. 10:371-375 (1958)) with the exception of the change of the A1-A2 labels to M1-M2, pursuant to the AASM Manual for Scoring of Sleep (Berry et al., “The AASM Manual for the Scoring of Sleep and Associated Events: Rules, Terminology and Technical Specifications,” Version 2.0.3, American Academy of Sleep Medicine, Darien, Ill., (2014)). This system requires that electrodes be positioned in measured relationships to landmark anatomical points. Standard placements for EOG, submental EMG electrodes, anterior tibialis EMG electrodes, and airflow sensors were consistent with the AASM Manual for Scoring of Sleep.
(2) The 27-day treatment period included five dosing periods (Dosing Periods 1-5) that were at least 5 days apart. Once continued eligibility was confirmed, subjects were randomized as to treatment upon check-in on Day 1. […] The time subjects spent in bed in an undisturbed environment was fixed at 8 hours (i.e., 960 PSG epochs of 30 seconds duration per epoch).
Following the evening-time dosing with study drug, subjects underwent eight hours of continuous PSG recording. […]

[1] = all treatment groups (0.5, 1.0, 3.0, 6.0 mg)

O=C(O)c1nc2ccccc2n([C@H]2C[C@H]3CCC[C@@H](C2)N3C2CC3CCCC(C3)C2)c1=O (stereo partly shown) [Compound (1C)]
Latency to Persistent Sleep (LPS) Least Squares Means (STDE) (0.5 mg oral): −25.9 (2.78) min
Sleep Efficiency (SE) Least Squares Means (STDE) (0.5 mg oral): 12.1 (1.02) %
Time Spent in Sleep Stage N2 Least Squares Means (STDE) (0.5 mg oral): 57.1 (5.53) min
Total Sleep Time (TST) Least Squares Means (STDE) (0.5 mg oral): 57.9 (4.88) min
Wake after Sleep Onset (WASO) Least Squares Means (STDE) (0.5 mg oral): −37.1 (4.54) min
Latency to Persistent Sleep (LPS) Difference of Least Squares Means vs. Placebo (0.5 mg vs. Placebo): 2.6 min
Sleep Efficiency (SE) Difference of Least Squares Means vs. Placebo (0.5 mg vs. Placebo): 4.1%
Time Spent in Sleep Stage N2 Difference of Least Squares Means vs. Placebo (0.5 mg vs. Placebo): 33.6 min
Total Sleep Time (TST) Difference of Least Squares Means vs. Placebo (0.5 mg vs. Placebo): 19.8 min
Wake after Sleep Onset (WASO) Difference of Least Squares Means vs. Placebo (0.5 mg vs. Placebo): -24.3 min
WASO, decrease in the difference of LSMs (0.5 mg vs. placebo): 24.3 min
Latency to Persistent Sleep (LPS) Least Squares Means (STDE) (1.0 mg oral): −29.9 (2.78) min
Sleep Efficiency (SE) Least Squares Means (STDE) (1.0 mg oral): 14.7 (1.02) %
Time Spent in Sleep Stage N2 Least Squares Means (STDE) (1.0 mg oral): 69.2 (5.53) min
Total Sleep Time (TST) Least Squares Means (STDE) (1.0 mg oral): 70.3 (4.88) min
Wake after Sleep Onset (WASO) Least Squares Means (STDE) (1.0 mg oral): −44.5 (4.54) min
Latency to Persistent Sleep (LPS) Difference of Least Squares Means vs. Placebo (1.0 mg vs. Placebo): -1.4 min
Sleep Efficiency (SE) Difference of Least Squares Means vs. Placebo (1.0 mg vs. Placebo): 6.7%
Time Spent in Sleep Stage N2 Difference of Least Squares Means vs. Placebo (1.0 mg vs. Placebo): 45.7 min
Total Sleep Time (TST) Difference of Least Squares Means vs. Placebo (1.0 mg vs. Placebo): 32.3 min
Wake after Sleep Onset (WASO) Difference of Least Squares Means vs. Placebo (1.0 mg vs. Placebo): -31.8 min
WASO, decrease in the difference of LSMs (1.0 mg vs. placebo): 31.8 min
Latency to Persistent Sleep (LPS) Least Squares Means (STDE) (3.0 mg oral): −29.0 (2.82) min
Sleep Efficiency (SE) Least Squares Means (STDE) (3.0 mg oral): 17.6 (1.03) %
Time Spent in Sleep Stage N2 Least Squares Means (STDE) (3.0 mg oral): 132.1 (5.6) min
Total Sleep Time (TST) Least Squares Means (STDE) (3.0 mg oral): 84.5 (4.96) min
Wake after Sleep Onset (WASO) Least Squares Means (STDE) (3.0 mg oral): −59.1 (4.60) min
Latency to Persistent Sleep (LPS) Difference of Least Squares Means vs. Placebo (3.0 mg vs. Placebo): -0.5 min
Sleep Efficiency (SE) Difference of Least Squares Means vs. Placebo (3.0 mg vs. Placebo): 9.7%
Time Spent in Sleep Stage N2 Difference of Least Squares Means vs. Placebo (3.0 mg vs. Placebo): 108.5 min
Total Sleep Time (TST) Difference of Least Squares Means vs. Placebo (3.0 mg vs. Placebo): 46.4 min
Wake after Sleep Onset (WASO) Difference of Least Squares Means vs. Placebo (3.0 mg vs. Placebo): -46.4 min
WASO, decrease in the difference of LSMs (3.0 mg vs. placebo): 46.4 min
Latency to Persistent Sleep (LPS) Least Squares Means (STDE) (6.0 mg oral): −31.7 (2.78) min
Sleep Efficiency (SE) Least Squares Means (STDE) (6.0 mg oral): 19.0 (1.02) %
Time Spent in Sleep Stage N2 Least Squares Means (STDE) (6.0 mg oral): 146.3 (5.5) min
Total Sleep Time (TST) Least Squares Means (STDE) (6.0 mg oral): 91.0 (4.88) min
Wake after Sleep Onset (WASO) Least Squares Means (STDE) (6.0 mg oral): −63.5 (4.54) min
Latency to Persistent Sleep (LPS) Difference of Least Squares Means vs. Placebo (6.0 mg vs. Placebo): -3.2 min
Sleep Efficiency (SE) Difference of Least Squares Means vs. Placebo (6.0 mg vs. Placebo): 11.0%
Time Spent in Sleep Stage N2 Difference of Least Squares Means vs. Placebo (6.0 mg vs. Placebo): 122.8 min
Total Sleep Time (TST) Difference of Least Squares Means vs. Placebo (6.0 mg vs. Placebo): 52.9 min
Wake after Sleep Onset (WASO) Difference of Least Squares Means vs. Placebo (6.0 mg vs. Placebo): -50.8 min
WASO, decrease in the difference of LSMs (6.0 mg vs. placebo): 50.8 min
Sleep Efficiency vs placebo [1]: significantly increased
Total Sleep Time vs placebo [1]: significantly increased
Wake after Sleep Onset vs placebo [1]: significantly decreased
amount of time spent in sleep Stage N2 vs placebo [1]: significantly increased
Latency to Persistent Sleep vs placebo (any of the treatment groups (0.5, 1.0, 3.0, 6.0 mg)): not significantly different
